Data published in patent US20100099561A1, “HETEROBICYCLIC ALKYLTHIO-BRIDGED ISOXAZOLINES” (E.I. DU PONT DE NEMOURS AND COMPANY, priority 2008, published 2010).

Key:
Assay type in all cases: in vivo
Conditions in all cases: 21 days, scale 0 to 100
[1] = test system: gallium, (catchweed bedstraw, Galium aparine); experiment: Test C preemergence, galium
Text: (§1) Seeds of plant species selected from annual bluegrass (Poa annua), blackgrass (Alopecurus myosuroides), canarygrass (Phalaris minor), gallium, (catchweed bedstraw, Galium aparine), chickweed (Stellaria media), downy bromegrass (Bromus tectorum), field poppy (Papaver rhoeas), field violet (Viola arvensis), green foxtail (Setaria viridis), deadnettle (henbit deadnettle, Lamium amplexicaule), Italian ryegrass (Lolium multiflorum), kochia (Kochia scoparia), lambsquarters (Chenopodium album), oilseed rape (Brassica napus), pigweed (Amaranthus retroflexus), Russian thistle (Salsola kali), spring barley (Hordeum vulgare), spring wheat (Triticum aestivum), wild buckwheat (Polygonum convolvulus), wild mustard (Sinapis arvensis), wild oat (Avena fatua), wild radish (Raphanus raphanistrum), windgrass (Apera spica-venti), winter barley (Hordeum vulgare), and winter wheat (Triticum aestivum) were planted and treated preemergence with test chemicals formulated in a non-phytotoxic solvent mixture which included a surfactant.
(§2) Treated plants and controls were maintained in a controlled growth environment for 21 days after which time all species were compared to controls and visually evaluated. Plant response ratings, summarized in Table C, are based on a scale of 0 to 100 where 0 is no effect and 100 is complete control. A dash (-) response means no test result.

[2] = test system: deadnettle (henbit deadnettle, Lamium amplexicaule); experiment: Test C preemergence, deadnettle
Text: as §1, §2

wild oat (Avena fatua) = experiment: Test C preemergence, wild oat
Text: as §1, §2

[3] = test system: pigweed (Amaranthus retroflexus); experiment: Test C preemergence, pigweed
Text: as §1, §2

[4] = test system: blackgrass (Alopecurus myosuroides); experiment: Test C preemergence, blackgrass
Text: as §1, §2

[5] = test system: annual bluegrass (Poa annua); experiment: Test C preemergence, annual bluegrass
Text: as §1, §2

[6] = test system: spring barley (Hordeum vulgare); experiment: Test C preemergence, spring barley
Text: as §1, §2

[7] = test system: field violet (Viola arvensis); experiment: Test C preemergence, field violet
Text: as §1, §2

[8] = test system: chickweed (Stellaria media); experiment: Test C preemergence, chickweed
Text: as §1, §2

[9] = test system: Italian ryegrass (Lolium multiflorum); experiment: Test C preemergence, Italian ryegrass
Text: as §1, §2

[10] = test system: canarygrass (Phalaris minor); experiment: Test C preemergence, canarygrass
Text: as §1, §2

[11] = test system: windgrass (Apera spica-venti); experiment: Test C preemergence, windgrass
Text: as §1, §2

[12] = test system: green foxtail (Setaria viridis); experiment: Test C preemergence, green foxtail
Text: as §1, §2

[13] = test system: oilseed rape (Brassica napus); experiment: Test C preemergence, oilseed rape
Text: as §1, §2

[14] = test system: winter wheat (Triticum aestivum); experiment: Test C preemergence, winter wheat
Text: as §1, §2

kochia (Kochia scoparia) = experiment: Test C preemergence, kochia
Text: as §1, §2

[15] = test system: wild mustard (Sinapis arvensis); experiment: Test C preemergence, wild mustard
Text: as §1, §2

[16] = test system: field poppy (Papaver rhoeas); experiment: Test C preemergence, field poppy
Text: as §1, §2

[17] = test system: wild radish (Raphanus raphanistrum); experiment: Test C preemergence, wild radish
Text: as §1, §2

SMILES: CC1(C)CC(S(=O)(=O)Cc2c(C(F)(F)F)nc3n(c2=O)CCCC3)=NO1 [Compound 8, 3-[[(4,5-dihydro-5,5-dimethyl-3-isoxazolyl)sulfonyl]methyl]-6,7,8,9-tetrahydro-2-(trifluoromethyl)-4H-pyrido[1,2-α]pyrimidin-4-one]
- Plant response rating, Galium ([1]; 16 g ai/ha): 0
- Plant response rating, Galium ([1]; 31 g ai/ha): 0
- Plant response rating, Galium ([1]; 62 g ai/ha): 0
- Plant response rating, Galium ([1]; 125 g ai/ha): 0
- Plant response rating, Deadnettle ([2]; 16 g ai/ha): 0
- Plant response rating, Deadnettle ([2]; 31 g ai/ha): 0
- Plant response rating, Deadnettle ([2]; 62 g ai/ha): 0
- Plant response rating, Deadnettle ([2]; 125 g ai/ha): 0
- Plant response rating, Oat, Wild (wild oat (Avena fatua); 16 g ai/ha): 0
- Plant response rating, Oat, Wild (wild oat (Avena fatua); 31 g ai/ha): 0
- Plant response rating, Oat, Wild (wild oat (Avena fatua); 62 g ai/ha): 0
- Plant response rating, Oat, Wild (wild oat (Avena fatua); 125 g ai/ha): 0
- Plant response rating, Pigweed ([3]; 16 g ai/ha): 0
- Plant response rating, Pigweed ([3]; 31 g ai/ha): 0
- Plant response rating, Pigweed ([3]; 62 g ai/ha): 0
- Plant response rating, Pigweed ([3]; 125 g ai/ha): 0
- Plant response rating, Blackgrass ([4]; 16 g ai/ha): 0
- Plant response rating, Blackgrass ([4]; 31 g ai/ha): 0
- Plant response rating, Blackgrass ([4]; 62 g ai/ha): 20
- Plant response rating, Blackgrass ([4]; 125 g ai/ha): 35
- Plant response rating, Bluegrass ([5]; 16 g ai/ha): 0
- Plant response rating, Bluegrass ([5]; 31 g ai/ha): 0
- Plant response rating, Bluegrass ([5]; 62 g ai/ha): 0
- Plant response rating, Bluegrass ([5]; 125 g ai/ha): 0
- Plant response rating, Barley, Spring ([6]; 16 g ai/ha): 0
- Plant response rating, Barley, Spring ([6]; 31 g ai/ha): 0
- Plant response rating, Barley, Spring ([6]; 62 g ai/ha): 0
- Plant response rating, Barley, Spring ([6]; 125 g ai/ha): 0
- Plant response rating, Field Violet ([7]; 16 g ai/ha): 0
- Plant response rating, Field Violet ([7]; 31 g ai/ha): 0
- Plant response rating, Field Violet ([7]; 62 g ai/ha): 0
- Plant response rating, Field Violet ([7]; 125 g ai/ha): 90
- Plant response rating, Chickweed ([8]; 16 g ai/ha): 0
- Plant response rating, Chickweed ([8]; 31 g ai/ha): 0
- Plant response rating, Chickweed ([8]; 62 g ai/ha): 0
- Plant response rating, Chickweed ([8]; 125 g ai/ha): 40
- Plant response rating, Ryegrass, Italian ([9]; 16 g ai/ha): 0
- Plant response rating, Ryegrass, Italian ([9]; 31 g ai/ha): 0
- Plant response rating, Ryegrass, Italian ([9]; 62 g ai/ha): 0
- Plant response rating, Ryegrass, Italian ([9]; 125 g ai/ha): 0
- Plant response rating, Canarygrass ([10]; 16 g ai/ha): 0
- Plant response rating, Canarygrass ([10]; 31 g ai/ha): 0
- Plant response rating, Canarygrass ([10]; 62 g ai/ha): 0
- Plant response rating, Canarygrass ([10]; 125 g ai/ha): 20
- Plant response rating, Windgrass ([11]; 16 g ai/ha): 0
- Plant response rating, Windgrass ([11]; 31 g ai/ha): 0
- Plant response rating, Windgrass ([11]; 62 g ai/ha): 35
- Plant response rating, Windgrass ([11]; 125 g ai/ha): 90
- Plant response rating, Foxtail, Green ([12]; 16 g ai/ha): 0
- Plant response rating, Foxtail, Green ([12]; 31 g ai/ha): 0
- Plant response rating, Foxtail, Green ([12]; 62 g ai/ha): 15
- Plant response rating, Foxtail, Green ([12]; 125 g ai/ha): 60
- Plant response rating, Oilseed Rape ([13]; 16 g ai/ha): 0
- Plant response rating, Oilseed Rape ([13]; 31 g ai/ha): 0
- Plant response rating, Oilseed Rape ([13]; 62 g ai/ha): 0
- Plant response rating, Oilseed Rape ([13]; 125 g ai/ha): 0
- Plant response rating, Wheat, Winter ([14]; 16 g ai/ha): 0
- Plant response rating, Wheat, Winter ([14]; 31 g ai/ha): 0
- Plant response rating, Wheat, Winter ([14]; 62 g ai/ha): 0
- Plant response rating, Wheat, Winter ([14]; 125 g ai/ha): 0
- Plant response rating, Kochia (kochia (Kochia scoparia); 16 g ai/ha): 0
- Plant response rating, Kochia (kochia (Kochia scoparia); 31 g ai/ha): 0
- Plant response rating, Kochia (kochia (Kochia scoparia); 62 g ai/ha): 0
- Plant response rating, Kochia (kochia (Kochia scoparia); 125 g ai/ha): 0
- Plant response rating, Mustard, Wild ([15]; 16 g ai/ha): 0
- Plant response rating, Mustard, Wild ([15]; 31 g ai/ha): 0
- Plant response rating, Mustard, Wild ([15]; 62 g ai/ha): 30
- Plant response rating, Mustard, Wild ([15]; 125 g ai/ha): 100
- Plant response rating, Field Poppy ([16]; 16 g ai/ha): 0
- Plant response rating, Field Poppy ([16]; 31 g ai/ha): 0
- Plant response rating, Field Poppy ([16]; 62 g ai/ha): 50
- Plant response rating, Field Poppy ([16]; 125 g ai/ha): 75

SMILES: CC1(C)CC(S(=O)(=O)Cc2c(C(F)(F)F)nc3n(c2=O)CCS3)=NO1 [Compound 6]
- Plant response rating, Galium ([1]; 31 g ai/ha): 0
- Plant response rating, Galium ([1]; 62 g ai/ha): 0
- Plant response rating, Galium ([1]; 125 g ai/ha): 0
- Plant response rating, Galium ([1]; 250 g ai/ha): 0
- Plant response rating, Deadnettle ([2]; 31 g ai/ha): 0
- Plant response rating, Deadnettle ([2]; 62 g ai/ha): 0
- Plant response rating, Deadnettle ([2]; 125 g ai/ha): 0
- Plant response rating, Deadnettle ([2]; 250 g ai/ha): 0
- Plant response rating, Oat, Wild (wild oat (Avena fatua); 31 g ai/ha): 20
- Plant response rating, Oat, Wild (wild oat (Avena fatua); 62 g ai/ha): 25
- Plant response rating, Oat, Wild (wild oat (Avena fatua); 125 g ai/ha): 25
- Plant response rating, Oat, Wild (wild oat (Avena fatua); 250 g ai/ha): 30
- Plant response rating, Pigweed ([3]; 31 g ai/ha): 0
- Plant response rating, Pigweed ([3]; 62 g ai/ha): 0
- Plant response rating, Pigweed ([3]; 125 g ai/ha): 0
- Plant response rating, Pigweed ([3]; 250 g ai/ha): 100
- Plant response rating, Blackgrass ([4]; 125 g ai/ha): 98
- Plant response rating, Bluegrass ([5]; 31 g ai/ha): 20
- Plant response rating, Bluegrass ([5]; 62 g ai/ha): 20
- Plant response rating, Bluegrass ([5]; 125 g ai/ha): 20
- Plant response rating, Bluegrass ([5]; 250 g ai/ha): 90
- Plant response rating, Barley, Spring ([6]; 31 g ai/ha): 20
- Plant response rating, Barley, Spring ([6]; 62 g ai/ha): 20
- Plant response rating, Barley, Spring ([6]; 125 g ai/ha): 20
- Plant response rating, Barley, Spring ([6]; 250 g ai/ha): 20
- Plant response rating, Field Violet ([7]; 31 g ai/ha): 0
- Plant response rating, Field Violet ([7]; 62 g ai/ha): 0
- Plant response rating, Field Violet ([7]; 125 g ai/ha): 0
- Plant response rating, Field Violet ([7]; 250 g ai/ha): 0
- Plant response rating, Chickweed ([8]; 31 g ai/ha): 0
- Plant response rating, Chickweed ([8]; 62 g ai/ha): 0
- Plant response rating, Chickweed ([8]; 125 g ai/ha): 0
- Plant response rating, Chickweed ([8]; 250 g ai/ha): 50
- Plant response rating, Ryegrass, Italian ([9]; 31 g ai/ha): 0
- Plant response rating, Ryegrass, Italian ([9]; 62 g ai/ha): 15
- Plant response rating, Ryegrass, Italian ([9]; 125 g ai/ha): 15
- Plant response rating, Ryegrass, Italian ([9]; 250 g ai/ha): 95
- Plant response rating, Canarygrass ([10]; 125 g ai/ha): 35
- Plant response rating, Windgrass ([11]; 125 g ai/ha): 20
- Plant response rating, Foxtail, Green ([12]; 125 g ai/ha): 20
- Plant response rating, Oilseed Rape ([13]; 31 g ai/ha): 0
- Plant response rating, Oilseed Rape ([13]; 62 g ai/ha): 0
- Plant response rating, Oilseed Rape ([13]; 125 g ai/ha): 0
- Plant response rating, Oilseed Rape ([13]; 250 g ai/ha): 0
- Plant response rating, Wheat, Winter ([14]; 31 g ai/ha): 0
- Plant response rating, Wheat, Winter ([14]; 62 g ai/ha): 0
- Plant response rating, Wheat, Winter ([14]; 125 g ai/ha): 0
- Plant response rating, Wheat, Winter ([14]; 250 g ai/ha): 20
- Plant response rating, Kochia (kochia (Kochia scoparia); 31 g ai/ha): 0
- Plant response rating, Kochia (kochia (Kochia scoparia); 62 g ai/ha): 0
- Plant response rating, Kochia (kochia (Kochia scoparia); 125 g ai/ha): 0
- Plant response rating, Kochia (kochia (Kochia scoparia); 250 g ai/ha): 0
- Plant response rating, Mustard, Wild ([15]; 31 g ai/ha): 0
- Plant response rating, Mustard, Wild ([15]; 62 g ai/ha): 0
- Plant response rating, Mustard, Wild ([15]; 125 g ai/ha): 0
- Plant response rating, Mustard, Wild ([15]; 250 g ai/ha): 0
- Plant response rating, Field Poppy ([16]; 31 g ai/ha): 40
- Plant response rating, Field Poppy ([16]; 62 g ai/ha): 50
- Plant response rating, Field Poppy ([16]; 125 g ai/ha): 90
- Plant response rating, Field Poppy ([16]; 250 g ai/ha): 100
- Plant response rating, Radish, Wild ([17]; 31 g ai/ha): 0
- Plant response rating, Radish, Wild ([17]; 62 g ai/ha): 0
- Plant response rating, Radish, Wild ([17]; 125 g ai/ha): 0
- Plant response rating, Radish, Wild ([17]; 250 g ai/ha): 0
